Laboratory results as given in patent US6812229B1, “Carbamate derivative and agricultural/horticultural fungicide” (Kumiai Chemical Industry Co., Ltd., priority 1999, dated 2004).

system: Septoria nodorum; experiment: Test for preventive effect on Septoria leaf blotch of wheat; type: in vivo; conditions: wheat seedlings (Norin-61-go), two-leaf stage, 50 ppm active ingredient, 10 ml per pot, evaluated 10 days after inoculation with Septoria nodorum
Description: [table] 10 Wheat seeds (variety: Norin-61-go) were sown in each plastic pot having a diameter of 6 cm, and grown in a greenhouse. […] Then, the seedlings were inoculated with Septoria nodorum […] controlled in a greenhouse. 10 Days after the inoculation, the total diseased area of the first leaves in each pot was observed and evaluated on the basis of the standards shown in Table 21.

| SMILES | Evaluation (total diseased area of the first leaves) |
| --- | --- |
| COC(=O)NCc1cccc(C(C)=NOCc2ccccc2Cl)c1 [A-338] | A (No diseased area) |
| COC(=O)NCc1cccc(C(C)=NOCc2cccc(Cl)c2)c1 [A-339] | A (No diseased area) |
| COC(=O)NCc1cccc(C(C)=NOCc2ccc(Cl)cc2)c1 [A-340] | B (Diseased area of less than 5%) |
| COC(=O)NCc1cc(C(=NOCc2ccccc2Cl)C2CC2)ccc1Cl [A-341] | A (No diseased area) |
| COC(=O)NCc1cc(C(C)=NOCc2ccccc2F)ccc1C [A-342] | A (No diseased area) |
| COC(=O)NCc1cccc(C(C)=NOCc2ccccc2C)c1 [A-343] | A (No diseased area) |
| COC(=O)NCc1cccc(C(C)=NOCc2cccc(C)c2)c1 [A-344] | A (No diseased area) |
| COC(=O)NCc1cccc(C(C)=NOCc2ccc(C)cc2)c1 [A-345] | B (Diseased area of less than 5%) |
| COC(=O)NCc1cccc(C(C)=NOCc2ccccc2C(F)(F)F)c1 [A-348] | B (Diseased area of less than 5%) |
| COC(=O)NCc1cccc(C(C)=NOCc2cccc(C(F)(F)F)c2)c1 [A-349] | A (No diseased area) |
| COC(=O)NCc1cc(C(C)=NOCc2ccccn2)cc(C)c1Cl [A-355] | B (Diseased area of less than 5%) |
| COC(=O)NCc1cc(C(C)=NOCc2ccccc2C#N)cc(C)c1Cl [A-356] | A (No diseased area) |
| COC(=O)NCc1cc(C(C)=NOCc2ccccc2Cl)cc(C)c1C [A-358] | A (No diseased area) |
| COC(=O)NCc1cc(C(=NOCc2ccccc2C)C2CC2)ccc1Cl [A-359] | B (Diseased area of less than 5%) |
| COC(=O)NCc1cc(C(C)=NOCc2ccccc2C#N)ccc1C [A-360] | A (No diseased area) |
| COC(=O)N(Cc1cc(C(C)=NOCc2ccccc2C#N)ccc1C)Cc1ccccc1C#N [A-361] | B (Diseased area of less than 5%) |
| COC(=O)NCc1cc(C(C)=NOCc2cccc(C)c2)ccc1C [A-362] | A (No diseased area) |
| COC(=O)NCc1cc(C(C)=NOCc2ccc(C)cc2)ccc1C [A-363] | A (No diseased area) |
| COC(=O)NCc1cc(C(C)=NOCc2cccc(Cl)c2)ccc1C [A-364] | A (No diseased area) |
| COC(=O)NCc1cc(C(C)=NOCc2ccc(Cl)cc2)ccc1C [A-365] | B (Diseased area of less than 5%) |
| CON=C(C)CON=C(C)c1ccc(C)c(CNC(=O)OC)c1 [A-368] | A (No diseased area) |
| COC(=O)NCc1cc(C(C)=NOCCc2ccccc2)ccc1C [A-369] | A (No diseased area) |
| COC(=O)NCc1cc(C(C)=NOCc2cc(C)ccn2)ccc1Cl [A-370] | A (No diseased area) |
| COC(=O)NCc1cc(C(C)=NOCc2cccc(Cl)c2)ccc1F [A-371] | A (No diseased area) |
| COC(=O)NCc1cc(C(C)=NOCc2ccc(Cl)cc2)ccc1F [A-372] | A (No diseased area) |
| COC(=O)NCc1cc(C(C)=NOCc2cccc(C)c2)ccc1F [A-373] | A (No diseased area) |
| COC(=O)NCc1cc(C(C)=NOCc2ccc(C)cc2)ccc1F [A-374] | A (No diseased area) |

| SMILES | Evaluation (total diseased area of the first leaves) |
| --- | --- |
| COC(=O)NCc1cc(C(C)=NOCc2cccc(C(F)(F)F)c2)ccc1F [A-375] | B (Diseased area of less than 5%) |
| COC(=O)NCc1cc(C(C)=NOCc2ccc(C(F)(F)F)cc2)ccc1F [A-376] | B (Diseased area of less than 5%) |
| COC(=O)NCc1cc(C(C)=NOCc2ccccc2C#N)ccc1F [A-377] | A (No diseased area) |
| COC(=O)NCc1cc(C(C)=NOC(C)c2ccccc2Cl)ccc1F (centres unmarked) [A-378] | A (No diseased area) |
| COC(=O)NCc1cc(C(C)=NOC(C)c2cccc(Cl)c2)ccc1F (centres unmarked) [A-379] | A (No diseased area) |
| COC(=O)NCc1cc(C(C)=NOC(C)c2ccc(Cl)cc2)ccc1F (centres unmarked) [A-380] | A (No diseased area) |
| COC(=O)NCc1c(C)c(C)c(C)c(C(C)=NOCc2ccccc2)c1C [A-381] | A (No diseased area) |
| COC(=O)NCc1c(Cl)c(Cl)c(Cl)c(C(C)=NOCc2ccccc2)c1Cl [A-382] | B (Diseased area of less than 5%) |
| COC(=O)NCc1cccc(C(C)=NOc2cccc(Cl)c2C#N)c1 [A-385] | B (Diseased area of less than 5%) |
| COC(=O)NCc1cccc(C(C)=NOCc2cccc(Cl)c2Cl)c1 [A-386] | B (Diseased area of less than 5%) |
| COC(=O)NCc1cccc(C(C)=NOCc2ccc(Cl)cc2Cl)c1 [A-387] | B (Diseased area of less than 5%) |
| COC(=O)NCc1cccc(C(C)=NOCc2cc(Cl)ccc2Cl)c1 [A-388] | A (No diseased area) |
| COC(=O)NCc1cccc(C(C)=NOCc2c(Cl)cccc2Cl)c1 [A-389] | A (No diseased area) |
| COC(=O)NCc1cc(C(C)=NOCc2cccc(C#N)n2)ccc1Cl [A-396] | A (No diseased area) |
| COC(=O)NCc1cc(C(C)=NOCc2cccnc2C#N)ccc1Cl [A-397] | A (No diseased area) |
| COC(=O)NCc1cccc(C(C)=NOCc2ccccc2F)c1 [A-398] | A (No diseased area) |
| COC(=O)NCc1cccc(C(C)=NOCc2ccc(F)cc2)c1 [A-400] | B (Diseased area of less than 5%) |
| COC(=O)NCc1cc(C(C)=NOCC(=O)c2ccc(Cl)cc2)ccc1Cl [A-403] | A (No diseased area) |
| COC(=O)NCc1cc(C(C)=NOCC(=O)c2ccc(OC)cc2)ccc1Cl [A-404] | A (No diseased area) |
| COC(=O)NCc1cc(C(=NOCc2ccccn2)C2CC2)ccc1Cl [A-405] | A (No diseased area) |
| COC(=O)NCc1cc(C(C)=NOC(C)c2ccccc2C)ccc1Cl (centres unmarked) [A-406] | A (No diseased area) |
| COC(=O)NCc1cc(C(C)=NOC(C)c2cccc(C)c2)ccc1Cl (centres unmarked) [A-407] | A (No diseased area) |
| COC(=O)NCc1cc(C(C)=NOCc2ccc(C(C)=O)o2)ccc1Cl [A-410] | A (No diseased area) |
| COC(=O)NCc1cc(C(C)=NOC2C=CCC2OC)ccc1Cl (centres unmarked) [A-411] | A (No diseased area) |
| CON=C(C)C(ON=C(C)c1ccc(Cl)c(CNC(=O)OC)c1)C(C)=NOC (centres unmarked) [A-412] | A (No diseased area) |
| COC(=O)NCc1cc(C(C)=NOCc2nc(C)cc(C)n2)ccc1Cl [A-413] | A (No diseased area) |
